ChEMBL document CHEMBL4417636, “Small molecule inhibitors of pendrin ion exchange and pharmaceutical compositions” (2017)
Active and inactive are the calls of the source. The calls are words filed in the database; no cut-off is given here.

Assays:
Pendrin (Mus musculus) [1] = target: T1, Pendrin (Mus musculus) (UniProt Q9R155); assay: Inhibition of mouse pendrin expressed in FRT cells co-expressing YFP-HIF assessed as reduction in pendrin-mediated exchange of Cl(-) with NO3(-) by pH-sensitive fluorescent probe BCECF-AM based fluorescence assay relative to control; assay type: cell-based
T1 sequence (whole entry): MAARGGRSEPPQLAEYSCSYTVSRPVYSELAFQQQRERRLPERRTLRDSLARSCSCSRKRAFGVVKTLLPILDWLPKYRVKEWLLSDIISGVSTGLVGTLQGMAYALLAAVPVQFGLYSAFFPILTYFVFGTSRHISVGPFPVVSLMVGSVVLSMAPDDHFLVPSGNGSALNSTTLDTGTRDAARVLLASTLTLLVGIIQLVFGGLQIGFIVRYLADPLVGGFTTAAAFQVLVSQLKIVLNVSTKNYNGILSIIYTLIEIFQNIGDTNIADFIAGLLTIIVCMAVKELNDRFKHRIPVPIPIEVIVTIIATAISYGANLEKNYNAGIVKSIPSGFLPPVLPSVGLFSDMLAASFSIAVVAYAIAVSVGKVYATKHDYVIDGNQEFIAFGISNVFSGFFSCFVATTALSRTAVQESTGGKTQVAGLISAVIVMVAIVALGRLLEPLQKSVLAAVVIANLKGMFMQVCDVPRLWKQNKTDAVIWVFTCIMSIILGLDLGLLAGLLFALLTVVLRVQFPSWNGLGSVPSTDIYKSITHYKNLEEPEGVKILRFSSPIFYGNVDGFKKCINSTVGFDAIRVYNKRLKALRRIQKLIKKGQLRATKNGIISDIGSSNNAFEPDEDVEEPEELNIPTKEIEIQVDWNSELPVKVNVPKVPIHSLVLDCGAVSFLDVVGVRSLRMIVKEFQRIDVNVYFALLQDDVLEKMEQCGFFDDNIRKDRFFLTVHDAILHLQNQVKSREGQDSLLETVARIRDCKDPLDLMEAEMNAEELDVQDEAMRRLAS

Mus musculus [2] = assay: Potentiation of 5 to 50 mg/kg, ip furosemide-induced acute diuretic action in CD1 mouse assessed as increase in urine volume at 50 mg/kg, ip relative to control; assay type: functional, organism-based
Mus musculus [3] = assay: Potentiation of 20 mg/kg, ip furosemide-induced acute diuretic action in CD1 mouse assessed as effect on urinary K+ excretion at 10 mg/kg, ip measured at 3 hrs relative to control; assay type: functional, organism-based
Mus musculus [4] = assay: Potentiation of 20 mg/kg, ip furosemide-induced acute diuretic action in CD1 mouse assessed as effect on urinary K+ excretion at 50 mg/kg, ip measured at 3 hrs relative to control; assay type: functional, organism-based
Mus musculus [5] = assay: Potentiation of 20 mg/kg, ip furosemide-induced acute diuretic action in CD1 mouse assessed as induction of metabolic alkalosis at 10 mg/kg, ip; assay type: functional, organism-based
Pendrin (Mus musculus) [6] = target: T1, Pendrin (Mus musculus); assay: Inhibition of mouse pendrin expressed in FRT cells co-expressing YFP-HIF assessed as reduction in pendrin-mediated exchange of Cl(-) with SCN(-) by pH-sensitive fluorescent probe BCECF-AM based fluorescence assay relative to control; assay type: cell-based
Pendrin = target: T2, Pendrin (Homo sapiens, UniProt O43511); assay: Inhibition of human pendrin expressed in FRT cells co-expressing EYFP-HIF assessed as reduction in pendrin-mediated C17NO3(-) exchange incubated for 10 mins by pH-sensitive fluorescent probe BCECF-AM based fluorescence assay relative to control; assay type: cell-based
T2 sequence (O43511 whole entry): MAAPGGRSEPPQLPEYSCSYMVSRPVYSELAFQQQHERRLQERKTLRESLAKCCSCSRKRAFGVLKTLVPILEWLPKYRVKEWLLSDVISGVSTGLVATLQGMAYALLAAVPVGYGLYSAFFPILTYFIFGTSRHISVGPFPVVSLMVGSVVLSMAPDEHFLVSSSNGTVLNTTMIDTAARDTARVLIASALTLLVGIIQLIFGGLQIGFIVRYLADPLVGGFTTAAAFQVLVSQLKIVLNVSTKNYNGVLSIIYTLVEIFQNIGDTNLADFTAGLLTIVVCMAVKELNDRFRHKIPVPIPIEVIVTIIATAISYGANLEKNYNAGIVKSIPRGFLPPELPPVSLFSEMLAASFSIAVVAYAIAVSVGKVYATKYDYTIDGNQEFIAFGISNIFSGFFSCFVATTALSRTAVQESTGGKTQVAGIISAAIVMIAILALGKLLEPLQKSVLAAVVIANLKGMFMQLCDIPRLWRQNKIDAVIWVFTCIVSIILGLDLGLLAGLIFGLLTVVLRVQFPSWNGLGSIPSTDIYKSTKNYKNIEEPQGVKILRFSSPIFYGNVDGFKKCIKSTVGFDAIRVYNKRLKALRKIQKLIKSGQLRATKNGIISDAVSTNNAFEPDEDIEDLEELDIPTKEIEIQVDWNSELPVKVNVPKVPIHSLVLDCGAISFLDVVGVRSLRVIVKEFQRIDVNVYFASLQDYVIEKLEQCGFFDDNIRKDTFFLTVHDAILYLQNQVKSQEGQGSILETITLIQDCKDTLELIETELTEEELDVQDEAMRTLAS

Mus musculus [7] = assay: Potentiation of 20 mg/kg, ip furosemide-induced acute diuretic action in CD1 mouse assessed as increase in urinary Na+ excretion at 10 mg/kg, ip measured at 3 hrs relative to control; assay type: functional, organism-based
Mus musculus [8] = assay: Potentiation of 20 mg/kg, ip furosemide-induced acute diuretic action in CD1 mouse assessed as effect on urine pH at 50 mg/kg, ip relative to control; assay type: functional, organism-based
Pendrin (Homo sapiens) [9] = target: T3, Pendrin (Homo sapiens) (UniProt O43511); assay: Inhibition of pendrin in human bronchial epithelial cells assessed as increase in airway surface liquid depth at 25 uM by rhodamine B-dextran fluorescence based confocal microscopy (reference value: -16 um)
T3 sequence (whole entry): T2 sequence (O43511 whole entry)

Homo sapiens [10] = organism: Homo sapiens; assay: Inhibition of CaCC in human bronchial epithelial cells assessed as effect on short-circuit current at 25 uM pre-incubated for 30 mins
Pendrin (Homo sapiens) [11] = target: T3, Pendrin (Homo sapiens); assay: Inhibition of pendrin in human bronchial CFBE assessed as increase in airway surface liquid depth at 25 uM by rhodamine B-dextran fluorescence based confocal microscopy (reference value: -16 um)
Homo sapiens [12] = organism: Homo sapiens; assay: Inhibition of potassium channel in human bronchial epithelial cells assessed as effect on short-circuit current at 25 uM pre-incubated for 30 mins
Pendrin (Homo sapiens) [13] = target: T3, Pendrin (Homo sapiens); assay: Inhibition of pendrin in IL13-stimulated human CFBE assessed as reduction in gluconate gradient-induced intracellular alkalization at 25 uM; assay type: cell-based
Homo sapiens [14] = organism: Homo sapiens; assay: Effect on airway surface liquid pH in IL13-stimulated NHBE cells at 25 uM by pH-sensitive fluorophore BCECF based fluorescence based assay; assay type: functional, cell-based
Homo sapiens [15] = organism: Homo sapiens; assay: Effect on airway surface liquid depth in NHBE cells at 25 uM by rhodamine B-dextran fluorescence based confocal microscopy; assay type: functional, cell-based

| Compound | inhibition (Pendrin (Mus musculus) [1]) | Activity (Mus musculus [2]) | Activity (Mus musculus [3]) | Activity (Mus musculus [4]) | Activity (Mus musculus [5]) | inhibition (Pendrin (Mus musculus) [6]) | IC50 (Pendrin) [µM] | Activity (Mus musculus [7]) | Activity (Mus musculus [8]) | Activity (Pendrin (Homo sapiens) [9]) [µm] | inhibition (Homo sapiens [10]) | Activity (Pendrin (Homo sapiens) [11]) [µm] | inhibition (Homo sapiens [12]) | inhibition (Pendrin (Homo sapiens) [13]) | Activity (Homo sapiens [14]) | Activity (Homo sapiens [15]) |
| --- | --- | --- | --- | --- | --- | --- | --- | --- | --- | --- | --- | --- | --- | --- | --- | --- |
| Cc1n[nH]c(-c2cc(S(=O)(=O)NC3CCCc4ccccc43)c(C)s2)c1C (stereo unspecified) | Dose-dependent effect | Active | inactive | inactive | Active | Dose-dependent effect | 5 | Active | inactive |  |  |  |  |  |  |  |
| Cn1nc(COc2cccc(F)c2)c2c1CCN(C(=O)Nc1ccc(Cl)cc1)C2 |  |  |  |  |  |  |  |  |  | -8 | inactive | -8 | inactive | Active | inactive | inactive |
